Experimental data published in patent publication US20120121691A1, “Method for Increasing the Production of a Specific ACYL-Chain Dihydroceramide(s) for Improving the Effectiveness of Cancer Treatments” (priority 2010, published 2012).

Assays:
[1] = tested on: COG-LL-317; type: cell-based, human
Method: (§1) Statistical analyses. […] Propagated standard deviations were calculated using standard methods. Correlation analyses were performed using Sigmaplot 11 software.

[2] = tested on: COG-LL-332; type: cell-based, human
Method: as §1

[3] = tested on: MOLT-4; type: cell-based, human
Method: as §1

[4] = tested on: CCRF-CEM
Method: Statistical analyses. Descriptive statistics and significance testing were performed using Microsoft Excel. The Excel function “t.test” was used for Student's T-testing (two-tailed, type-2). Propagated standard deviations were calculated using standard methods. Correlation analyses were performed using Sigmaplot 11 software. […]
Due to the confounding effect of in vitro fatty acid conversion, correlation analyses were used to identify significant relationships between absolute levels of specific sphingolipids and cytotoxicity. […]

| Structure (SMILES) | Pearson Coef. (r), sphingolipid level vs cytotoxicity [1] | Spearman Coef. (ρ), sphingolipid level vs cytotoxicity [1] | Pearson Coefficient (r), sphingolipid level vs cytotoxicity [2] | Spearman Coefficient (ρ), sphingolipid level vs cytotoxicity [2] | Pearson Coef. (r), sphingolipid level vs cytotoxicity [3] | Spearman Coef. (ρ), sphingolipid level vs cytotoxicity [3] | Pearson Coef. (r), sphingolipid level vs cytotoxicity [4] | Spearman Coef. (ρ), sphingolipid level vs cytotoxicity [4] |
| --- | --- | --- | --- | --- | --- | --- | --- | --- |
| CCCCCCCCCCCCCC=CC(O)C(CO)NC(=O)CCCCCCCCCCCCCCCCCCCCCCC (centres unmarked) [C24:0-Cer] | 0.48 | 0.25 | 0.39 | 0.38 | 0.33 | 0 | 0.40 | 0.41 |
| CCCCCCCCCCCCCCCCCCCCCCCC(=O)N[C@@H](CO)[C@H](O)CCCCCCCCCCCCCCC [C24:0-DHCer] | 0.89 | 0.91 | 0.74 | 0.83 | 0.79 | 0.88 | 0.58 | 0.84 |
| CCCCCCCC/C=C\CCCCCCCCCCCCCC(=O)N[C@@H](CO)[C@H](O)/C=C/CCCCCCCCCCCCC [C24:1-Cer] | −0.42 | −0.74 | −0.07 | 0.05 | −0.43 | −0.55 | −0.27 | −0.32 |
| CCCCCCCC/C=C\CCCCCCCCCCCCCC(=O)N[C@@H](CO)[C@H](O)CCCCCCCCCCCCCCC [C24:1-DHCer] | −0.29 | −0.21 | 0.14 | 0.45 | −0.04 | 0.12 | −0.17 | −0.07 |
